Measured values: patent publication US10390536B2, “Methods, compounds and compositions for repelling insects and/or arachnids” (National Center for Scientific Research “Demokritos”, priority 2013, dated 2019)

Columns and labels:
Assay type in all cases: in vivo
[1] = tested on: Anopheles gambiae (Giles) ss strain 16CSS female mosquitoes; test: warm body repellence assay (mosquito landings); details: for median repellency (%) at 20 nmol/cm2: Anopheles gambiae, 2 min, 20 nmole per cm^2, read-out: Median Repellency (%)
Method: To test the behavior of female mosquitoes to an essential oil containing OBP binding components, a previously described repellence assay [Kröber et al. (2010). An In Vitro Assay for Testing Mosquito Repellents Employing a Warm Body and Carbon Dioxide as a Behavioral Activator. Journal of the American Mosquito Control Association 26(4) 381-386] was conducted that measures the number of mosquito landings on a warm surface onto which an essential oil containing at least one candidate compound was applied.
To conduct a repellency assay, a selected essential oil or ethanol negative control was applied to a warm body at a dose of about 3.8 μg/cm^2 and allowed to dry for 40 seconds in order to allow evaporation of the solvent before introduction into the test cage with mosquitoes. As positive control for repellence, DEET dissolved in ethanol was applied to the warm body at the same dose. The treated warm body in conjunction with a pulse of carbon dioxide was introduced into the test cage containing fifty Anopheles gambiae (Giles) ss strain 16CSS female mosquitoes that were 4-11 days old and the number of mosquito landings on the warm body occurring within a 2-minute period was counted. Each candidate compound was tested in five different cages (i.e., 250 female mosquitoes) in a randomized design, and the ethanol control and up to four candidate compounds were tested in each cage. Raw data on numbers of landings by mosquitoes were analyzed using a linear mixed model accounting for treatment, experimental day, the individual cage, the number of females per cage and the level of the carbon dioxide pulse in ppm using R (R Development Core Team, 2010) and the packages LME4 (Bates and Maechler, Ime4: Linear mixed-effects models using {S4} classes.{R} package version 0.999375-32, 2009) and NLME (Pinheiro et al, nlme: Linear and Nonlinear Mixed Effects Models, 2010; the R Development Core Team, R: A Language and Environment for Statistical Computing, 2010). Repellent values were calculated from counted landings on treatments versus the overall landings on pooled controls.
To test the behavior of female mosquitoes to a candidate compound identified in Example 5, behavioral assays were made using the identified compounds. The repellent assay was performed as described in Example 3, except that candidate compounds were dissolved in ethanol and tested initially at doses between 1.0 and 5.0 μg/cm^2 (about 5-31.5 nmole/cm^2) and, whenever necessary, at lower and/or higher doses as well. Besides the compounds identified in Example 5, compounds related to these were also tested including ethyl-cinnamate and butyl-cinnamate (Table 4).
To test the behavior of female mosquitoes to various combinations of candidate compounds identified in Example 6, repellence assays were made as in Example 3. These repellent assays were made to compare the effectiveness of the strongest repellent compounds identified in Example 6, including, without limitation, carvacrol, ethyl cinnamate, butyl cinnamate, and cumin alcohol with that of DEET.
The doses tested were 2, 4, 6 10 and 20 nmol/cm^2 for the single compounds. The binary 50:50 mixtures were tested at 2, 6, 10 and 20 nmol/cm^2, with each compound making up half the amount tested, so that, for example, the 2 nmol/cm^2 concentration in column A+B represents 1 nmol/cm^2 of A and 1 nmol/cm^2 of B in a binary mixture. DEET was also tested at 25 nmol (top response) and carvacrol was tested at the additional dose of 2.5 nmol (second from left within its column). As an indication, DEET at 20 nmol/cm^2=3.8 μg/cm^2. Mosquitoes were activated using a puff of CO2 from a gas tank upon introduction of the warm body into the test cage containing 50±5 A. gambiae females and mosquito landings were counted for 2 minutes. Each treatment (dose) was tested using five test cages, i.e. on a total of 250 female A. gambiae. […]

Anopheles gambiae s.l. = test: experimental hut field trial of spatial repellence, Anopheles; details: single compound, 1 ml in open vial in MM-X trap, per night
Method: (§1) To test the effects of repellent compounds or compositions disclosed herein on mosquitoes in a controlled environment resembling actual living quarters and conditions, field trials with standardized experimental huts were conducted at Kainji Dam in North Central Nigeria.
(§2) Six such huts were built in a straight line, and the distance between huts was 11 meters. These huts follow a traditional square design, the walls are built with concrete blocks that are subsequently plastered with cement, each wall has a window. The ceiling is plywood and the roof is thatched with eaves that are open, thereby allowing free flow of air into and out of the hut, and thus entry and exit of mosquitoes. There is a door for entry and exit. Two opposing sides of each hut have window exit traps and screened verandas to capture mosquitoes leaving via the windows or eaves. Each hut is raised off the ground on a concrete platform and surrounded by a moat filled with water in order to prevent ants from entering. Each hut is fitted with a mattress and an untreated bed net for sleepers. These huts are similar in design and concept to those used previously elsewhere for studying mosquito behavior and measuring the efficacy of various mosquito control products or intervention methods in Tanzania and Gambia. For design parameters refer to WHOPES 2005. The huts are adjacent to a tributary of the River Niger at a distance of 10 km from the Kainji Dam site and face rice fields known to harbor permanent mosquito breeding sites. The mosquitoes endemic to this area of Nigeria are highly endophillic, that is, they rest mainly indoors.
(§3) Human volunteers that participated as sleepers in this field trial were provided with anti-malarial chemical prophylaxis on a weekly basis, and the protocols used herein were reviewed and approved by the Research Ethics Review Committee of the Nigerian Institute of Medical Research. Six male adult volunteers, aged between 25 and 35 years old, were recruited to sleep in the huts described above. Sleepers were allocated to huts randomly for each series of trials, and this randomization process occurred nightly. The volunteers entered the huts by 21:00 each night and remained inside the huts until 06:30 the following morning. Each morning, the windows were closed and the exit traps blocked with a piece of cloth to prevent mosquitoes that entered from exiting. The traps were then put in a freezer at −20° C. to kill all the mosquitoes before being emptied for identification. By means of a sucking aspirator the verandas and rooms were visually searched for live mosquitoes and any insects found were collected in labelled cups. A 10-minute search was conducted for each hut (room and veranda traps). The exit traps were emptied into a labelled cup and all the mosquitoes placed in the freezer at −20° C. for about 30 minutes before morphological identification.
(§4) The Mosquito Magnet trap Model-X (MM-X trap made by the firm formerly known as American Biophysics (ABC), USA) is a 12V battery operated counter-flow trap that was used as the repellent dispersing device to evaluate the efficacy of repellent compounds or compositions disclosed herein. Four compounds, carvacrol, cumin alcohol, ethyl cinnamate, and butyl cinnamate, were evaluated in comparison to DEET as a nonproprietary conventional repellent in a first experiment. The chemical compounds were provided in liquid form: carvacrol (98%), butyl cinnamate (98%), ethyl cinnamate (98%), cumin alcohol (97%) and DEET (97%). […]

Culex spp. = test: experimental hut field trial of spatial repellence, Culex; details: single compound, 1 ml in open vial in MM-X trap, per night
Method: as §1, §2, §3, §4

[2] = tested on: sand fly Lutzomyia longipalpis; test: warm body repellence assay with sand flies; details: 2 minutes, control 48
Method: To test the effects of repellent compounds or compositions disclosed herein on other blood-feeding arthropods, a warm body repellence assay (Krober et. al. (2010). An In Vitro Assay for Testing Mosquito Repellents Employing a Warm Body and Carbon Dioxide as a Behavioral Activator. Journal of the American Mosquito Control Association 26(4): 381-386] was conducted using the sand fly Lutzomyia longipalpis (Diptera: Psychodidae), the principal vector of Leishmania (or leismaniasis) in the Americas.
[…] Fifty L. longipalpis sandflies (male:female ratio 1:1) of 3-7 days old were tested during the scotophase under conditions described for A. gambiae in Example 6. The test cages were lined with filter paper. Reduction in the number of landings by L. longipalpis sand fly females on a warm body treated with different test products compared to the control with solvent (ethanol p.a.) alone was used to evaluate repellence. Tests were conducted in complete darkness using IR LEDs to illuminate the warm body. Landings counted during 2 minutes were normalized by experimental day, cage, and number of females by a mixed linear model before testing for differences.

[3] = 2 nmol (per cm^2, total for mixtures, 50:50)
[4] = 4 nmol (per cm^2, total for mixtures, 50:50)
[5] = 6 nmol (per cm^2, total for mixtures, 50:50)
[6] = 20 nmol (per cm^2, total for mixtures, 50:50)

| Compound | Median repellence % [1, 3] | Median repellence % [1, 4] | Median repellence % [1, 5] | Median repellence % [1, 6] | median repellency (%) at 20 nmol/cm2 [1] | spatial repellent effect, induced exophily (in words) (Anopheles gambiae s.l.) | spatial repellent effect, induced exophily (in words) (Culex spp.) | Median repellence % ([1]; 10 nmol (per cm^2, total for mixtures, 50:50)) | Median of landings ([2]; 20 nmol/cm^2) | Median of landings ([2]; 200 nmol/cm^2) |
| --- | --- | --- | --- | --- | --- | --- | --- | --- | --- | --- |
| CCOC(=O)C=Cc1ccccc1 [(E)-ethyl-cinnamate, ethyl 3-phenylprop-2-enoate] | −18% | 18% | 35% | 83% | 82.8% | significantly lower than that of DEET | significantly lower than that of DEET |  |  |  |
| CCCCOC(=O)C=Cc1ccccc1 [butyl-cinnamate, butyl 3-phenylprop-2-enoate] | −1% | 28% | 61% | 89% | 88.7% | significantly lower than that of DEET | significantly lower than that of DEET | 68% | 49 | 40 |
